Test results as given in patent US6096711A, “Hsp72 induction and applications” (priority 1998, dated 2000).
pKi: −log10 of the molar value. Non-standard residues stand in square brackets, D forms with d. Residues, ends and D or L forms follow the SMILES beside them. *: point of attachment. Nle = CCCC[C@H](N)C(=O)O; Cbz = O=C(OCc1ccccc1)*

Assays:
Hsp27 = Hsp27 induction in U937 cells; assay type: cell-based, human; settings: incubation of U937 cells with MG132
Description: (§1) U937 human lymphoid tumor cells were grown in RPMI-1640 medium with 10% fetal bovine serum and were used for experiments while in the mid log-phase (3-7.105 cells/ml). 293 human cells were grown in DMEM medium with 10% fetal bovine serum and were used in transient transfection experiments while at 40% of confluence. MG132 was purchased from Biomol Res Lab, Inc, PA. aLLN was purchased from Sigma, MO. MG132 analogs were synthesized and purified by HPLC. Anti-hsp72 antibody (SPA810) was from StressGene Biotechnologies Corp (Canada), anti-p53 antibody (PAb1801) was from SantaCruz Biotechnology, Inc, Calif.

JNK [1] = assay: JNK assay in U937 cells; assay type: cell-based, human; set-up: JNK activation by the compound itself: dose or concentration left out as unconfirmed
Description: as §1
JNK activity was assayed using GST-c-Jun protein as a substrate after immunoprecipitation with anti-JNK1 antibodies (sc-474, Santa Cruz Biotechnology, Inc., Calif.), or anti-HA antibody for transfected JNK (Berkley Antibody Company). Briefly, cells were lysed in a buffer containing 20 mM Tris-HCl, pH 7.4, 50 mM NaCl, 2 mM EDTA, 1% Triton X-100, 25 mM b-glycerophosphate, 10 mM NaF, 1 mM Na3VO4, and protease inhibitors (1 mM PMSF and 25 mg/ml each of aprotenin, pepstatin, leupeptin). After immunoprecipitation with anti-JNK1 or anti-HA antibody and protein A-sepharose for 2 h at 4° C. and washing, kinase reaction was carried out in a buffer containing 25 mM HEPES, 10 mM MgCl2, 2 mM DTT, 25 mM b-glycerophosphate, 2 mM Na3 VO4 and 25 mCi 32P-g-ATP at 37° C. for 10 min. Samples were then subjected to SDS-PAGE followed by transfer to a nitrocellulose membrane and autoradiography. This membrane was later used for immunoblot with anti-JNK1 antibody to ensure that equal amounts of the kinase were immunoprecipitated. p38 kinase activity was determined by Western blot with polyclonal antibody (New England Biolabs, MA) specifically recognizing the phosphorylated (active) form of p38. Later the same blot was treated with anti-p38 antibody (New England Biolabs, Mass.) to assure equal loading of the kinase on different lanes.

[2] = test system: U937 human lymphoid tumor cells; assay: Apoptosis / cell death of U937 cells; assay type: cell-based; set-up: induction of apoptosis by the compound itself: dose or concentration left out as unconfirmed
Description: as §1
PARP degradation was followed by Western blotting with anti-PARP monoclonal antibodies (C2-10, G. Poirier, Montreal, Canada). Apoptosis of 293 cells was detected by cleavage of a truncated form of Ul-70 kDa protein d12 (Romac, J. M. J. et al., Mol Cell Biol 14: 4662-4670 (1994)). Cells were transfected by calcium phosphate method with a plasmid encoding d12 tagged with T7 epitope alone or together with a dominant-negative mutant forms of SEK1 (K/R) or c-jun (TAM67). After 48 hours cells were either treated with […] MG132 or subjected to heat shock at 45° C. for 15 min. After additional 24 hours cells were lysed and cleavage of d12 was detected by Western blot with anti-T7 epitope antibody.

Hsp72 [3] = assay: Hsp72 induction in U937 cells; assay type: cell-based, human; set-up: accumulation of Hsp72: dose or concentration left out as unconfirmed; settings: for levels of Hsp72: incubation of U937 cells with the compound
Description: as §1

JNK [4] = assay: JNK activation by heat shock in IMR90 cells pretreated with MG132; assay type: cell-based, Human
Description: (§2) Young and old cells were incubated with either […] of MG132 for 5 hours, washed with PBS and incubated in a fresh medium for an additional 12 hours.
JNK activity was assayed using GST-c-Jun protein as a substrate after immunoprecipitation with anti-JNK1 antibodies (sc-474, Santa Cruz Biotechnology, Inc., CA). Briefly, cells were lysed in a buffer containing 20 mm Tris-HCl, pH 7.4, 50 mm NaCl, 2 mm EDTA, 1% Triton X-100, 25 mm b-glycerophosphate, 10 mm NaF, 1 mm Na3VO4, and protease inhibitors (1 mm PMSF and 25 mg/ml each of aprotenin, pepstatin, leupeptin). After immunoprecipitation with anti-JNK1 antibody and protein A-sepharose for 2 h at 4° C. and washing, kinase reaction was carried out in a buffer containing 25 mm HEPES, 10 mm MgCl2, 2 mm DTT, 25 mm b-glycerophosphate, 2 mm Na3VO4 and 25 mCi 32P-g-ATP at 37° C. for 10 min. Then the samples were subjected to SDS-PAGE followed by transfer to a nitrocellulose membrane and autoradiography. This membrane was later used for immunoblot with anti-JNK1 antibody to ensure that equal amounts of the kinase were immunoprecipitated.

Hsp72 [5] = assay: Hsp72 induction in young and old IMR90 cells; assay type: cell-based, Human; settings: compared with mild heat shock of young cells
Description: Human lung fibroblasts IMR90 which underwent either 12-17 divisions ("young" cells) or 62-67 divisions ("old" cells) were grown in MEM medium supplemented with 20% bovine fetal serum and 2mM glutamine. The cells were seeded at a density of 1.105 cells/35 mm plate and grown at 37° C. in an atmosphere of 95% air and 5% CO2. Cultures were split when cell density reached confluency. MG132 was purchased from Biomol Res Lab, Inc, PA. Anti-Hsp72 antibody (SPA810) was from StressGene Biotechnologies Corp (Canada).
as §2

Hsp40 = Hsp40 induction in U937 cells; assay type: cell-based, human; settings: incubation of U937 cells with MG132
Description: as §1

[6] = test system: Human lung fibroblasts IMR90; assay: Heat-induced apoptosis in IMR90 cells; assay type: cell-based; settings: young and old IMR90 cells pretreated with MG132
Description: as §2
Young and old cells were subjected to heat shock at 45° C. for different time periods followed by incubation at 37° C. After 24 hours cells were stained with Hoechst 33342 according to manufacturer's specifications.

[7] = test system: chymotrypsin-like activity of the proteasome; settings: cited from earlier work; for pKi: slow binding inhibitors, Vinitsky et al.

CC(C)C[C@@H](C=O)NC(=O)[C@H](CC(C)C)NC(=O)[C@H](CC(C)C)NC(=O)OCc1ccccc1 [MG132] (Cbz-Leu-Leu-Leu-aldehyde)
induction of Hsp27 (Hsp27): appeared to be induced | JNK activation by the compound itself (JNK [1]; followed by withdrawal): activated JNK only temporally | JNK activation by severe heat shock (JNK [1]; pretreated versus untreated U937 cells): much lesser activation | activation of JNK by TNF (JNK [1]; pretreatment with MG132): strongly suppressed | activation of JNK by ethanol (JNK [1]; pretreatment with MG132): strongly suppressed | induction of apoptosis by the compound itself ([2]; followed by withdrawal): insufficient to induce apoptosis | effect of long incubation on JNK and apoptosis ([2]; long incubation of U937 cells): prolonged activation of JNK leading to apoptosis | TNF-induced apoptosis ([2]; pretreatment with MG132): did not rescue cells from TNF-induced apoptosis and even potentiated it | cell death caused by ethanol ([2]; pretreatment with MG132): suppressed cell death caused by ethanol | extent of cell death after heat shock ([2]; pretreatment with MG132, about 40% without pretreatment): negligible level | accumulation of Hsp72 (Hsp72 [3]; after several hours of recovery): strong accumulation of Hsp72 | levels of Hsp72 (Hsp72 [3]): dramatically increase | JNK activation by heat shock of various severity (JNK [4]): strongly suppressed in both young and old cells | Hsp72 levels induced (Hsp72 [5]): exceeded those triggered in young cells by a mild heat shock | induction of Hsp40 (Hsp40): appeared to be induced | protection from heat-induced apoptosis [6]: protected from apoptosis

CC(C)CC(C=CS(C)(=O)=O)NC(=O)C(CC(C)C)NC(=O)C(CC(C)C)NC(=O)Cc1cc(I)c(O)c([N+](=O)[O-])c1 (centres unmarked) [NIP-L3VS]
levels of Hsp72 (Hsp72 [3]): dramatically increase

CC(C)C[C@@H](C=O)NC(=O)CNC(=O)CNC(=O)OCc1ccccc1 [Z-Gly-Gly-Leu-H] (Cbz-Gly-Gly-Leu-aldehyde)
inhibition of the chymotrypsin-like activity of the proteasome ([7]; Orlowski 1990): inhibits the chymotrypsin-like activity of the proteasome

CC(C)C[C@H](NC(=O)OCc1ccccc1)C(=O)N[C@@H](CC(C)C)C(=O)N[C@H](C=O)Cc1ccccc1 [Z-LLF-H, (benzyloxycarbonyl)-Leu-Leu-phenylalaninal] (Cbz-Leu-Leu-Phe-aldehyde)
pKi [7]: 6.34

CC(C)C[C@H](NC(=O)[C@H](CC(C)C)NC(=O)[C@H](CC(C)C)NC(=O)OCc1ccccc1)C(N)=O [Z-LLL-amide] (Cbz-Leu-Leu-Leu-NH2)
levels of Hsp72 (Hsp72 [3]): did not lead to any significant induction

CCOC(=O)C(=O)[C@H](Cc1ccccc1)NC(=O)[C@H](CC(C)C)NC(=O)[C@H](CC(C)C)NC(=O)OCc1ccccc1 [Z-Leu-Leu-Phe-COOEt]
pKi [7]: 4.28

CCCC[C@@H](C=O)NC(=O)[C@H](CC(C)C)NC(=O)[C@H](CC(C)C)NC(C)=O [aLLN] (Ac-Leu-Leu-[Nle]-aldehyde)
levels of Hsp72 (Hsp72 [3]): dramatically increase

CC(C)[C@H](O)[C@@]12NC(=O)[C@H](C)[C@@H]1OC2=O [lactacystin-β-lacton]
levels of Hsp72 (Hsp72 [3]): dramatically increase
